In ChEMBL document CHEMBL1142899, “4-amino-5-aryl-6-arylethynylpyrimidines: structure-activity relationships of non-nucleoside adenosine kinase inhibitors” (Bioorg Med Chem, 2007):
The source made the active and inactive calls. No cut-off for these calls is given here.

Experiments:
Rattus norvegicus [1] = assay: Reduction of formalin-induced nociception in rat at 10 umol/kg, ip by paw flinching test; type: functional; set-up: scale not given: the % may be the effect or the level left
Mus musculus = assay: Analgesic activity in mouse assessed as maximal protective effect at 30 umol/kg, ip by hot plate test; type: functional
Adenosine kinase [2] = biological target: T1, Adenosine kinase (Homo sapiens, UniProt P55263); assay: Inhibition of cytosolic adenosine kinase
T1 sequence (P55263 whole entry): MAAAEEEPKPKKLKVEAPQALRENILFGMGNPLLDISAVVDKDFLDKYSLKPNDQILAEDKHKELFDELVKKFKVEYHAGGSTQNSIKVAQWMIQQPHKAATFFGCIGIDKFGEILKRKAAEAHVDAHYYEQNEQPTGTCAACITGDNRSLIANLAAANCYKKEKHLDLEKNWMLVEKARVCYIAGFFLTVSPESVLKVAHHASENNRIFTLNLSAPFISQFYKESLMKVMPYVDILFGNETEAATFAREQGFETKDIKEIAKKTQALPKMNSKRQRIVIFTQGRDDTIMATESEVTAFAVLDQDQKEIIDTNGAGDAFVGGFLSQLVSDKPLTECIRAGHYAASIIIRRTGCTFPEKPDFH

Adenosine kinase [3] = biological target: T1, Adenosine kinase; assay: Inhibition of adenosine kinase in intact cells assessed as adenosine phosphorylation; type: functional, cell-based
Rattus norvegicus [4] = species: Rattus norvegicus; assay: Analgesic activity in spinal nerve ligated Sprague-Dawley rat by chung assay neuropathic pain animal model; type: functional, organism-based
[5] = Volume of distribution in rat at 5 umol/kg, iv; type: ADME, organism-based; conditions: in vivo, read-out: Vbeta
[6] = Half life in rat at 5 umol/kg, iv; type: ADME, organism-based; conditions: in vivo
[7] = Plasma clearance in rat at 5 umol/kg, iv; type: ADME, organism-based
[8] = Bioavailability in rat at 5 umol/kg, po; type: ADME, organism-based; conditions: in vivo
[9] = Metabolic stability in rat hepatocyte after 24 hrs; type: ADME, cell-based; conditions: hepatocytes, read-out: Stability
[10] = Cmax in rat at 5 umol/kg, po; type: ADME, organism-based; set-up: dose 5 umol/kg, route oral; conditions: in vivo
[11] = Metabolic stability in human liver microsomes after 1 hr; type: ADME, Microsome; conditions: read-out: Stability
Rattus norvegicus [12] = assay: Reduction of formalin-induced nociception in rat upto 30 umol/kg, ip by paw flinching test; type: functional, organism-based

SMILES	IC50 (Adenosine kinase [2])	IC50 (Adenosine kinase [3])	other results
Nc1ncnc(C#Cc2ccc(N3CCOCC3)cc2)c1-c1ccc(Cl)cc1	17 nM	275 nM	Activity (Rattus norvegicus [1]): 20%; Activity (Mus musculus): 67%
CN(C)c1ccc(C#Cc2ncnc(N3CCOCC3)c2-c2ccc(Cl)cc2)cc1	6 nM	970 nM	
CN(C)c1ccc(C#Cc2ncnc(N(C)C)c2-c2ccc(Cl)cc2)cc1	300 nM	> 1000 nM	
COc1ccc(-c2c(N)ncnc2C#Cc2ccc(N(C)C)cc2)cc1OC	20 nM	500 nM	
Nc1ncnc(C#Cc2ccccn2)c1-c1ccc(Cl)cc1	500 nM	> 1000 nM	
CC(C)NC(=O)Nc1cc(C#Cc2ncnc(N)c2-c2ccc3c(c2)OCO3)cnc1N1CCOCC1	18 nM	88 nM	
Cc1nc(N)c(-c2ccccc2)c(C#Cc2ccc(N(C)C)cc2)n1	> 1000 nM		
COCCN(C)c1ccc(C#Cc2ncnc(N)c2-c2ccc(Cl)cc2)cn1	1 nM	80 nM	Activity (Rattus norvegicus [1]): 48%
Nc1ncnc(C#Cc2ccc(N3CCOCC3)nc2)c1-c1ccc2c(c1)OCO2	10 nM	120 nM	Activity (Rattus norvegicus [1]): 47%
CN(C)c1ccc(C#Cc2ncnc(N)c2-c2ccc(Cl)cc2)cn1			Activity (Rattus norvegicus [1]): 20%; Activity (Mus musculus): 73%; Activity (Rattus norvegicus [4]): inactive
Nc1ncnc(C#Cc2ccc(N3CCOCC3)nc2)c1-c1ccc(Cl)cc1	3 nM	58 nM	Activity (Rattus norvegicus [1]): 29%; Activity (Mus musculus): 100%; Activity (Rattus norvegicus [4]): inactive
CN(C)c1ccc(C#Cc2ncnc(NCCc3c[nH]cn3)c2-c2ccc(Cl)cc2)cc1	80 nM	> 1000 nM	
Cc1ccc(-c2c(N)ncnc2C#Cc2ccc(N(C)C)cc2)cc1	13 nM	330 nM	
CN(C)c1ccc(C#Cc2cc(N)ncn2)cc1	> 1000 nM		
CN(C)c1ccc(C#Cc2ncnc(N)c2-c2cccc(Cl)c2)cc1	10 nM	550 nM	
Nc1ncnc(C#Cc2ccc(N3CCOCC3)nc2)c1-c1cc2ccccc2s1	0.4 nM	100 nM	Activity (Rattus norvegicus [1]): 49%
C#Cc1ncnc(N)c1-c1ccc2c(c1)OCO2	> 1000 nM		
CN(C)c1ccc(C#Cc2ncnc(N)c2-c2ccc(N(C)C)cc2)cc1	5 nM	240 nM	
CC(C)(C)OC(=O)N1CCN(c2ccc(C#Cc3ncnc(N)c3-c3ccc(Cl)cc3)cn2)CC1	62 nM	> 1000 nM	

SMILES	IC50 (Adenosine kinase [2])	IC50 (Adenosine kinase [3])	other results
CN(C)c1ccc(C#Cc2ncnc(NCCc3c[nH]c4ccccc34)c2-c2ccc(Cl)cc2)cc1	38 nM	> 1000 nM	
COCCN(C)c1cc(N2CCOCC2)ncc1C#Cc1ncnc(N)c1-c1ccc2c(c1)OCO2	101 nM	198 nM	
CN(C)c1ccc(C#Cc2ncnc(N3CCNCC3)c2-c2ccc(Cl)cc2)cc1	8 nM	> 1000 nM	
CN(C)c1ccc(C#Cc2ncnc(N)c2-c2ccccc2Cl)cc1	75 nM	700 nM	
CN(C)c1ccc(C#Cc2cc(NCc3ccccc3)ncn2)cc1	> 1000 nM		
CN(C)c1ccc(-c2c(N)ncnc2C#Cc2ccc(N3CCOCC3)nc2)cc1	2 nM		Vd [5]: 0.7 L/kg; half-life [6]: 30 min; clearance [7]: 16.7 mL/min/kg; bioavailability [8]: 9%; remaining at 24 h [9]: 21%; Activity (Rattus norvegicus [1]): 44%; Activity (Mus musculus): 100%; Cmax [10]: 80 ng/mL; remaining at 1 h [11]: 74%
Nc1ncnc(C#Cc2ccc(N3CCOCC3)nn2)c1-c1ccc(Cl)cc1	45 nM	700 nM	
CN(C)c1ccc(C#Cc2ncnc(N)c2C(c2ccccc2)c2ccccc2)cc1	600 nM		
CC(C)c1ccc(C#Cc2ncnc(N)c2-c2ccc(Cl)cc2)cc1	50 nM	> 1000 nM	
Nc1ncnc(C#Cc2ccc(N3CCOCC3)nc2)c1-c1cccs1	13 nM	167 nM	Activity (Rattus norvegicus [1]): 44%
CN(C)c1ccc(C#Cc2ncnc(N)c2-c2ccccc2)cc1		> 1000 nM	
CN(C)c1ccc(C#Cc2ncnc(N)c2-c2ccc3c(c2)OCO3)cc1		250 nM	
Nc1ncnc2nc(-c3ccc(N4CCOCC4)nc3)cc(-c3cccc(Br)c3)c12			Vd [5]: 1 L/kg; Cmax [10]: 550 ng/mL
CN(C)c1cc(N2CCOCC2)ncc1C#Cc1ncnc(N)c1-c1ccc2c(c1)OCO2	72 nM	215 nM	
Nc1ncnc(C#Cc2ccc(N3CCOCC3)nc2)c1-c1cc2ccccc2o1	1 nM	123 nM	Activity (Rattus norvegicus [1]): 36%
Nc1ncnc(C#Cc2cnc(N3CCOCC3)nc2)c1-c1ccc(Cl)cc1	8 nM	200 nM	Activity (Rattus norvegicus [1]): 36%; Activity (Mus musculus): 100%; Activity (Rattus norvegicus [4]): inactive
Nc1ncnc(C#Cc2ccc(N3CCOCC3)nc2)c1-c1ccsc1	38 nM	212 nM	
CN(C)c1cc(C#Cc2ncnc(N)c2-c2ccc3c(c2)OCO3)cnc1N1CCOCC1	26 nM	161 nM	Activity (Rattus norvegicus [12]): inactive
Nc1ncnc(C#Cc2cncc(N3CCOCC3)c2)c1-c1ccc(Cl)cc1	8 nM	110 nM	Activity (Rattus norvegicus [1]): 49%
